Laboratory results: patent US8314093B2, “2,4-pyrimidinediamine compounds for treating or preventing autoimmune diseases” (Rigel Pharmaceuticals, Inc., priority 2006, dated 2012)

What follows are compounds tested on cultured human mast cells (CHMC), IgE-induced degranulation (assay: LD Tryptase assay: CHMC low cell density IgE activation, tryptase release). Conditions: anti-IgE stimulation, 8 pt.
Type: cell-based
Method: Inhibition of degranulation is measured at both low and high cell density by quantifying the release of the granule specific factors tryptase, histamine and hexosaminidase. Inhibition of release and/or synthesis of lipid mediators is assessed by measuring the release of leukotriene LTC4 and inhibition of release and/or synthesis of cytokines is monitored by quantifying TNF-α, IL-6 and IL-13. Tryptase and hexosaminidase are quantified using fluorogenic substrates as described in their respective examples. Histamine, TNFα, IL-6, IL-13 and LTC4 are quantified using the following commercial ELISA kits: histamine (Immunotech #2015, Beckman Coulter), TNFα (Biosource #KHC3011), IL-6 (Biosource #KMC0061), IL-13 (Biosource #KHC0132) and LTC4 (Cayman Chemical #520211). The protocols of the various assays are provided below.
CHMC Low Cell Density IgE Activation: Tryptase and LTC4 Assays
To duplicate 96-well U-bottom plates (Costar 3799) add 65 ul of compound dilutions or control samples that have been prepared in MT [137 mM NaCl, 2.7 mM KCl, 1.8 mM CaCl2, 1.0 mM MgCl2, 5.6 mM Glucose, 20 mM Hepes (pH 7.4), 0.1% Bovine Serum Albumin, (Sigma A4503)] containing 2% MeOH and 1% DMSO. Pellet CHMC cells (980 rpm, 10 min) and resuspend in pre-warmed MT. Add 65 ul of cells to each 96-well plate. Depending on the degranulation activity for each particular CHMC donor, load 1000-1500 cells/well. Mix four times followed by a 1 hr incubation at 37° C. During the 1 hr incubation, prepare 6× anti-IgE solution [rabbit anti-human IgE (1 mg/ml, Bethyl Laboratories A80-109A) diluted 1:167 in MT buffer]. Stimulate cells by adding 25 ul of 6× anti-IgE solution to the appropriate plates. Add 25 ul MT to un-stimulated control wells. Mix twice following addition of the anti-IgE. Incubate at 37° C. for 30 minutes. During the 30 minute incubation, dilute the 20 mM tryptase substrate stock solution [(Z-Ala-Lys-Arg-AMC 2TFA; Enzyme Systems Products, #AMC-246)] 1:2000 in tryptase assay buffer [0.1 M Hepes (pH 7.5), 10% w/v Glycerol, 10 uM Heparin (Sigma H-4898) 0.01% NaN3]. Spin plates at 1000 rpm for 10 min to pellet cells. Transfer 25 ul of supernatant to a 96-well black bottom plate and add 100 ul of freshly diluted tryptase substrate solution to each well. Incubate plates at room temperature for 30 min. Read the optical density of the plates at 355 nm/460 nm on a spectrophotometric plate reader.
In the case of `COc1ccc(CN2C(=O)C(C)Oc3ccc(Nc4nc(Nc5cc(O)c(OC)c(OC)c5)ncc4F)cc32)cc1` (racemic) [Example 9, (R/S)-5-Fluoro-N2-(3-hydroxy-4,5-dimethoxyphenyl)-N4-[2-methyl-3-oxo-4-(4-methoxybenzyl)-benz[1,4]oxazin-6-yl]-2,4-pyrimidinediamine], the IC50 is reported as under 5 µM.
Compound `COc1ccc(CN2C(=O)C(C)Sc3ccc(Nc4nc(Nc5cc(O)c(OC)c(OC)c5)ncc4F)cc32)cc1` (racemic) [Example 10, (R/S)-5-Fluoro-N2-(3-hydroxy-4,5-dimethoxyphenyl)-N4-[2-methyl-3-oxo-4-(4-methoxybenzyl)-benzo[1,4]thiazin-6-yl]-2,4-pyrimidinediamine] has an IC50 of under 5 µM.
Compound `COc1cc(Nc2ncc(F)c(Nc3ccc4c(c3)NC(=O)CS4)n2)cc(O)c1OC` [Example 1, 5-Fluoro-N2-(3-hydroxy-4,5-dimethoxyphenyl)-N4-[3-oxo-benzo[1,4]thiazin-6-yl]-2,4-pyrimidinediamine] has an IC50 of under 1 µM.
`COc1cc(Nc2ncc(F)c(Nc3ccc4c(c3)NC(=O)C(C)(C)S4)n2)cc(O)c1OC` [Example 2, N4-[2,2-Dimethyl-3-oxo-benzo[1,4]thiazin-6-yl]-5-fluoro-N2-(3-hydroxy-4,5-dimethoxyphenyl)-2,4-pyrimidinediamine] showed an IC50 of under 1 µM.
Work on `COc1cc(Nc2ncc(F)c(Nc3ccc4c(c3)NC(=O)C(C)(C)O4)n2)cc(O)c1OC` [Example 3, N4-[2,2-Dimethyl-3-oxo-benz[1,4]oxazin-6-yl]-5-fluoro-N2-(3-hydroxy-4,5-dimethoxyphenyl)-2,4-pyrimidinediamine] yielded an IC50 of under 1 µM.
In the case of `COc1cc(Nc2ncc(F)c(Nc3ccc4c(n3)NC(=O)C(C)(C)O4)n2)cc(O)c1OC` [Example 4, N4-[2,2-Dimethyl-3-oxo-pyrid[1,4]oxazin-6-yl]-5-fluoro-N2-(3-hydroxy-4,5-dimethoxyphenyl)-2,4-pyrimidinediamine], the IC50 is reported as under 1 µM.
Work on `COc1cc(Nc2ncc(F)c(Nc3ccc4c(c3)NC(=O)CO4)n2)cc(O)c1OC` [Example 5, 5-Fluoro-N2-(3-hydroxy-4,5-dimethoxyphenyl)-N4-[3-oxo-benz[1,4]oxazin-6-yl]-2,4-pyrimidinediamine] yielded an IC50 of under 1 µM.
`COc1cc(Nc2ncc(F)c(Nc3ccc4c(c3)NC(=O)C(F)(F)O4)n2)cc(O)c1OC` [Example 6, N4-[2,2-Difluoro-3-oxo-benz[1,4]oxazin-6-yl]-5-fluoro-N2-(3-hydroxy-4,5-dimethoxyphenyl)-2,4-pyrimidinediamine] was tested, and the IC50 was under 1 µM.
For `COc1cc(Nc2ncc(F)c(Nc3ccc4c(c3)N(Cc3ccccn3)C(=O)CO4)n2)cc(O)c1OC` [Example 7, 5-Fluoro-N2-(3-hydroxy-4,5-dimethoxyphenyl)-N4[3-oxo-4-(2-pyridylmethyl)-benz[1,4]oxazin-6-yl]-2,4-pyrimidinediamine], the IC50 was under 5 µM.
With `COc1cc(Nc2ncc(F)c(Nc3ccc4c(c3)C(=O)NC(=O)C4(C)C)n2)cc(O)c1OC` [Example 8, 5-Fluoro-N2-(3-hydroxy-4,5-dimethoxyphenyl)-N4-(1,3-(2H)-4,4-dimethylisoquinolinedione-7-yl)-2,4-pyrimidinediamine] the IC50 was under 1 µM.
`COc1cc(Nc2ncc(F)c(Nc3ccc4c(c3)N(C)C(=O)C(C)(C)S4(=O)=O)n2)cc(O)c1OC` [Example 11, 5-Fluoro-N2-(3-hydroxy-4,5-dimethoxyphenyl)-N4-(2,2,4-trimethyl-1,1,3-trioxo-benzo[1,4]thiazin-6-yl)-2,4-pyrimidinediamine] gave an IC50 of under 1 µM.
For `COc1cc(Nc2ncc(F)c(Nc3ccc4c(c3)N(C)C(=O)CS4)n2)cc(O)c1OC` [Example 12, 5-Fluoro-N2-(3-hydroxy-4,5-dimethoxyphenyl)-N4-(4-methyl-3-oxo-benzo[1,4]thiazin-6-yl)-2,4-pyrimidinediamine], the IC50 was under 1 µM.
`COc1cc(Nc2ncc(F)c(Nc3ccc4c(n3)NCC(C)(C)O4)n2)cc(O)c1OC` [Example 13, N4-(3,4-Dihydro-2H-2,2-dimethyl-5-pyrido[1,4]oxazin-6-yl)-N2-[3,4-dimethoxyphenyl-5-hydroxyphenyl]-5-fluoro-2,4-pyrimidinediamine] gave an IC50 of under 1 µM.
